Measured values from patent publication US20130090329A1, “Methods and Compositions for the Treatment of Psychotic Disorders Through the Identification of the Olanzapine Poor Response Predictor Genetic Signature” (SUREGENE, LLC, priority 2011, published 2013).
Marks after values point to notes of the source that are not given here.

What was measured:
psychopathology = details: meta-analysis, Davis et al. (2003); cited from earlier work
[1] = system: patients suffering from schizophrenia and related disorders; assay: CATIE study: categorical responders (change in total PANSS ≦−10%, LOCF) by OPRP status; type: in vivo, human; details: for Responders: change in total PANSS ≦−10%
Protocol: A total of 738 subjects consented to provide DNA for genetic study. Details regarding SNP genotyping and quality control have been recently published (Sullivan et al., 2008). Only retrospective genetic analyses, judged to be exempt from human studies requirements by an IRB, were conducted in the current study. For the genetic analyses presented herein, the inventors combined and evaluated drug response data for both Phase I and Phase IB of the CATIE study. All tested patients were studied using well established clinical endpoints comparing baseline, intermediate, and last observation carried forward (LOCF) for the PANSS scores using CATIE data. LOCF analysis is a commonly used clinical endpoint for clinical trials for neuropsychiatric drugs, with particular changes in PANSS scores being used to indicate clinically significant response (Leucht et al., 2009). […] As described above CATIE patients were studied using well established clinical endpoints comparing baseline, intermediate, and last observation carried forward (LOCF) for the PANSS scores.

[2] = system: patients suffering from schizophrenia and related disorders; assay: CATIE study: worsening of symptoms (LOCF delta PANSS ≧0%) by OPRP status; type: in vivo, human; details: for Worsening: delta PANSS ≧0%
Protocol: (§1) A total of 738 subjects consented to provide DNA for genetic study. […] Only retrospective genetic analyses, judged to be exempt from human studies requirements by an IRB, were conducted in the current study. For the genetic analyses presented herein, the inventors combined and evaluated drug response data for both Phase I and Phase IB of the CATIE study. All tested patients were studied using well established clinical endpoints comparing baseline, intermediate, and last observation carried forward (LOCF) for the PANSS scores using CATIE data. LOCF analysis is a commonly used clinical endpoint for clinical trials for neuropsychiatric drugs, with particular changes in PANSS scores being used to indicate clinically significant response (Leucht et al., 2009).
The inventors also examined the impact of the OPRP status on whether patients' symptoms actually got worse when treated with olanzapine. This is an important safety consideration for antipsychotic drugs response, and failure of a drug to display the desired clinical response on a specific subset of patients could impact the drug label, being contraindicated for a particular subset of patients (see Example 5: “Risk Management Involving the OPRP Genetic Test). […]

[3] = system: patients suffering from schizophrenia and related disorders; assay: CATIE study: percent change in total PANSS from baseline to LOCF, segmented by OPRP genetic signature status; type: in vivo, human; details: for Mean difference between olanzapine and labelled atypical antipsychotic, CATIE OPRP−: OPRP negative subjects; for Mean difference between olanzapine and labelled atypical antipsychotic, CATIE OPRP− / Mean difference between olanzapine and labelled atypical antipsychotic, CATIE unsegemented: delta PANSS, negative = olanzapine superior; for Mean difference in delta PANSS: olanzapine-treated OPRP positive group minus comparator group: comparator = OPRP positive subjects treated with the labelled drug, positive = poorer response to olanzapine; for Effect size (mean difference / standard deviation): olanzapine OPRP positive versus labelled drug OPRP positive
From the text: Genotype and phenotype data for the CATIE trial were recently made available to qualified researchers through the NIMH Center for Collaborative Genetic Studies on Mental Disorders. The sample consisted of a total of 738 patients. For the present study, the inventors assigned OPRP status to 628 subjects, including 411 subjects of self-reported European ancestry and 217 subjects of self-reported African ancestry. Further details on the patient population are described in the study by Sullivan and coworkers (Sullivan et al., 2008). The CATIE SNP genotype data evaluated included a total of 492,900 SNPs located throughout the genome.
The design of the CATIE study has been described in detail by others (Lieberman et al., 2005; Stroup et al., 2003). […] Subjects that failed Phase I treatment with the typical antipsychotic perphenazine were treated differently than those subjects that failed phase I treatment with an atypical antipsychotic. Instead of entering into Phase II of the trial, subjects who switched from perphenazine entered Phase IB. […] Subjects who failed Phase IB then entered Phase II.
as §1
Using the clinical data from the CAIE trial, the inventors derived several different metrics used for quantifying response in clinical trials of antipsychotic medications. The most commonly used psychometric instrument is the Positive and Negative Syndrome Scale (PANSS), a 30-item semi-quantitative instrument scored by clinical professionals (Kay et al., 1987). The greater the decrease in PANSS score, the better the clinical response. The most direct measure of clinical response is absolute change in PANSS score. In addition to absolute change, the improvement is often reported as a percentage change from baseline PANSS score.
To examine the relationship of genotypes to drug response the inventors used the publically available PLINK software (Purcell et al., 2007; available on the world wide web at pngu.mgh.harvard.edu/purcell/plink/) and Helix tree (Version 6.4.1; Golden Helix, Bozeman, Mont.). The inventors used Last observation Carry Forward (LOCF) delta PANSS values as a measure of response to antipsychotic treatment. […] The inventors refined the test further by conducting association analysis on using only those subjects that comprised the TT genotype of rs11960832.
As mentioned previously, the mean change in absolute or percent PANSS provides an important measure of efficacy in patients undergoing antipsychotic treatments. Indeed, many pivotal trials in the psychosis field used absolute and/or percentage change in PANSS Score as the primary endpoint (Leucht et al., 2009).

psychopathology (PANSS) [4] = details: weighted mean difference in PANSS score (absolute); negative = olanzapine superior; cited from earlier work
psychopathology (PANSS) [5] = details: meta-analysis, population not segmented by OPRP; negative = greater reduction in PANSS; cited from earlier work
[6] = Caucasian patients, OPRP Negative, LOCF
[7] = Caucasian patients, OPRP Positive, LOCF
[8] = OPRP Negative subjects, CATIE Phase I and IB, more negative = greater improvement
[9] = OPRP Positive subjects, CATIE Phase I and IB, more negative = greater improvement

| SMILES | Effect Size vs. FGA (first generation antipsychotics) (psychopathology) | Number of individuals with change in total PANSS ≦−10% (responders) ([1]; OPRP Negative) | Number of individuals with change in total PANSS ≧−10% (non-responders) ([1]; OPRP Negative) | Responders ([1]; OPRP Negative) | Number of individuals with change in total PANSS ≦−10% (responders) ([1]; OPRP Positive) | Number of individuals with change in total PANSS ≧−10% (non-responders) ([1]; OPRP Positive) | Responders ([1]; OPRP Positive) | Number of individuals with delta PANSS ≦0% (non-worsening) ([2]; OPRP Negative, LOCF) | Number of individuals with delta PANSS ≧0% (worsening symptoms) ([2]; OPRP Negative, LOCF) | Worsening ([2]; OPRP Negative, LOCF) | Number of individuals with delta PANSS ≦0% (non-worsening) ([2]; OPRP Positive, LOCF) | Number of individuals with delta PANSS ≧0% (worsening symptoms) ([2]; OPRP Positive, LOCF) | Worsening ([2]; OPRP Positive, LOCF) | DELTA PANSS % (mean change in PANSS score from baseline to LOCF) [3, 8] | DELTA PANSS % (mean change in PANSS score from baseline to LOCF) [3, 9] | Mean difference between olanzapine and labelled atypical antipsychotic, CATIE OPRP− [3] | Mean difference in delta PANSS: olanzapine-treated OPRP positive group minus comparator group [3] | Mean difference between olanzapine and labelled atypical antipsychotic, CATIE unsegemented [3] | Mean difference between olanzapine and labelled atypical antipsychotic, Meta-analysis (psychopathology (PANSS) [4]) | Effect Size vs. Placebo (psychopathology (PANSS) [5]) | also measured |
| --- | --- | --- | --- | --- | --- | --- | --- | --- | --- | --- | --- | --- | --- | --- | --- | --- | --- | --- | --- | --- | --- |
| OCCOCCN1CCN(C2=Nc3ccccc3Sc3ccccc32)CC1 [Quetiapine] | 0.01 | 48 | 99 | 33%^+++ | 4 | 14 | 22% | 95 | 62 | 42%^+++ | 9 | 9 | 50% | −3.2^++++ % | −1.2% | −8.4 | 5.5 | −6.2 | −3.7 | −0.42 | Number of individuals with delta PANSS ≦0% (non-worsening) [2, 6]: 85; Number of individuals with delta PANSS ≧0% (worsening symptoms) [2, 6]: 62; Worsening ([2]; Caucasian patients, OPRP Negative): 42%*; Number of individuals with delta PANSS ≦0% (non-worsening) [2, 7]: 2; Number of individuals with delta PANSS ≧0% (worsening symptoms) [2, 7]: 7; Worsening ([2]; Caucasian patients, OPRP Positive): 78%; Response of OPRP positive group compared with OPRP negative group (percent change in PANSS) ([3]; Caucasian subjects, CATIE): responded worse; DELTA PANSS % (mean change in PANSS score from baseline to LOCF) ([3]; Caucasian subjects, OPRP Negative): −0.6%; DELTA PANSS % (mean change in PANSS score from baseline to LOCF) ([3]; Caucasian subjects, OPRP Positive): 12%; Effect size (mean difference / standard deviation) ([3]; CATIE): 0.3^b; Effect size (mean difference / standard deviation) ([3]; CATIE, listed as quetiapine): 0.3 |
| Cc1nc2n(c(=O)c1CCN1CCC(c3noc4cc(F)ccc34)CC1)CCCC2 [Risperidone] |  | 55 | 91 | 38%^+ | 7 | 12 | 35%^ | 91 | 55 | 38%^+++ | 13 | 7 | 35%^ |  |  |  |  |  | −1.9 | −0.59 |  |
| O=C1Cc2cc(CCN3CCN(c4nsc5ccccc45)CC3)c(Cl)cc2N1 [Ziprasidone] | −0.04 | 16 | 53 | 23%^++++ | 2 | 9 | 18% | 35 | 34 | 49%^++++ | 7 | 4 | 36% | −1.5^++++ % | −0.5% | −10.1 | 4.8 | −4.9 | −8.3 | −0.48 | Effect size (mean difference / standard deviation) ([3]; CATIE): 0.2^b; Effect size (mean difference / standard deviation) ([3]; CATIE, listed as ziprasidone): 0.2 |
